Experimental findings from US20060088545A1, “Use of inhibitors of the protease of the human immunodeficiency virus (hiv) to block cell migration and/or invasion, tissue infiltration and oedema for the therary of diseases associated therewith” (priority 2001, published 2006) are described below.

Test [1] deals with primary macrovascular (umbilical vein) endothelial cells (HUVEC). As to the kind of experiment: Boyden chamber migration assay of HUVEC in response to bFGF. The conditions noted are these: 0.1, 1 or 10 μM; bFGF 50 ng/ml; 5 hours. It is filed as cell-based, human. The method, then:
Both assays were performed on endothelial cells.
Both assays were performed by the Boyden chamber separated in two compartments by polycarbonate filters with 12 μm pores (Nucleoprobe, Cabin John, Md.), coated with collagen IV (Collaborative Biomedical Products) for migration, or with collagen IV and Matrigel together for invasion, as described previously (Barillari et al., 1999b). […] After 5 hours (migration) or 6 hours (Invasion) of incubation, the non-migrated cells present on the top surface of the filters were mechanically removed, while the migrated cells on the bottom surface were fixed in methanol and stained with toluidine blue (Sigma Chemical Co., St. Louis, Mo.). The cells present in 5-10 microscopic fields of the filters, chosen at random, were counted as described previously (Barillari et al., 1999b).
The concentrations of HIV-PI used were the same as those present in plasma of treated patients (Deeks et al., 1997).

A further test deals with MMP-2. Nature of the test: Gelatin zymography of supernatants from TPA-stimulated HUVEC. The conditions noted are these: TPA 50 nM; 8 hours; 10 μM. It is filed as cell-based, human.
Test [2] relates to lesions induced by bFGF and VEGF combined. Nature of the test: Angiogenic KS-like lesions induced by bFGF and VEGF combined in nude mice. The settings on record: bFGF 0.1 μg + VEGF 1 μg. Type of test: in vivo. The method, then: Since VEGF co-operates synergistically with bFGF in inducing angiogenesis and KS-lesion formation, mice (6 animals/group) were also inoculated with sub-optimal amounts of bFGF (0.1 μg) and VEGF (1 μg) combined, as previously performed to observe their synergistic effect (Samaniego et al 1998), and treated with HIV-PI as indicated above.
At sacrifice the sites of injection were examined for the presence of macroscopic angioproliferative lesions and tissue stained by H & E and analysed microscopically. Here are listed the number (No.) of mice that developed lesions with respect to the number (No.) of mice inoculated, and the percentage (%) of mice that developed lesions.

Another test deals with KS cells. Nature of the test: KS cell migration, Boyden chamber, bFGF chemo-attractant. The settings on record: 0.01 μM-1 μM, 5 days. Type of test: cell-based, human. The method, then: In contrast, both drugs inhibited KS cell capability of invading a matrigel substrate in a dose-dependent manner. In particular, both HIV-PI inhibit the invasion of KS cells by 30-40% (p<0.05) (Table 4 and FIG. 13).
Migration and invasion assays were carried out essentially as detailed in the key to FIGS. 2 and 3.

The test system of test [3] is angioproliferative KS-like lesions induced by KS cells. As to the kind of experiment: KS-like lesions induced by inoculation of KS cells in nude mice (drug pre-treatment). It is filed as in vivo. The settings on record: KS cells 3×10^6; treatment starting 2 days before cell inoculation. The source says:
At the time of sacrifice, the sites of inoculation were examined to check for the presence of macroscopic angioproliferative lesions as described in the key to FIG. 12 and Table 5.
These angioproliferative lesions are transient, of murine origin and are developed in response to cytokines, such as bFGF and VEGF, IL-1, IL-6 and others, released by the KS cells (Ensoli et al., 1989; Ensoli et al., 1994a; Ensoli et al., 1994b; Fiorelli et al., 1995; Samaniego et al., 1995; Samaniego et al., 1997; Sgadari et al., 2000). In fact, at least in initial phase, KS is a reactive angioproliferative diseases and not a true neoplasm (Ensoli and Sturzl, 1998).
At the time of sacrifice, the sites of inoculation were examined to check for the presence of macroscopic angioproliferative KS-like lesions as described in the key to Table 1. Here are listed the number (No.) of mice that developed lesions with respect to the number (No.) of mice inoculated, and the percentage (%) of mice that developed lesions.

For test [4], the system named is lung carcinoma (A549) cells. As to the kind of experiment: Lesions induced by A549 cells in nude mice. Type of test: in vivo. The conditions noted are these: 5×10^6 cells/site; daily treatment. How it is done: (§1) The treatment with HIV-PI or saline solution continued until sacrifice. The size of the lesions present at the injection site was evaluated daily by caliper measurement. External lesion area was then calculated as the product of the two major lesion diameters. The mean size (cm^2) of the lesions present at the injection site is shown.
(§2) To determine whether HIV-PI could inhibit the growth of malignant solid and lymphoid tumours, nude mice were inoculated with hepato-carcinoma cells (SK-Hep-1), lung carcinoma cells (A549), breast adeno-carcinoma cells (MDA-MB-468), myelo-monocytic leukaemia cells (U937), and T lymhocytic leukaemia cells (Jurkat).

The subject of test [5] is T cell leukaemia (Jurkat) cells. Nature of the test: Tumour lesions induced by Jurkat cells in nude mice. It is filed as in vivo. The conditions noted are these: 20×10^6 cells/site; daily treatment. The method, then: as §1, §2
A further test concerns casein-degrading MMPs. As to the kind of experiment: Casein zymography of supernatants from HUVEC treated with bFGF or TPA. Type of test: cell-based, human. The settings on record: 10 μM; 8 or 24 hours. The method, then:
FIG. 11. Saquinavir blocks the production of casein-degrading MMPs by endothelial cells. […] Aliquots of cell supernatants normalised to total cell number were then analysed for MMP activity by gel zymography as described above in gels containing casein (2 mg/ml) instead of gelatin.). Panel A: casein zymography performed with cell supernatants harvested after 8 hours of culture in the presence of TPA or bFGF; Panel B: casein zymography performed with cell supernatants harvested after 24 hours of culture in the presence of TPA or bFGF. Casein is specifically cleaved by stromelysins (MMP-3, MMP-10, MMP-11) and matrilysin (MMP-7) (Whittaker and Ayscough, 2001) This led to the appearance of destained areas due to caseinolytic activity present in cell supernatants.

The subject of test [6] is vascular permeability and oedema induced by KS cells. Nature of the test: Vascular permeability and oedema induced by KS cells in nude mice (Evans blue). Type of test: in vivo.
Experimental: As a control, each animal was inoculated controlaterally with the same volume of diluting buffer and Matrigel. After 18 hours the animals were sacrificed and the quantity of staining decanted in the inoculation site of the KS cells was measured at the level of the two largest perpendicular diameters by means of a gauge. The quantity of staining decanted was also assessed after taking skin from the inoculation site and quantified with the spectrophotometer after extraction with formamide for 24 hours at 56° C. […] The quantity of staining decanted was calculated after subtraction of the optical density measured on the control site.
After 12 hours the animals were sacrificed, the stained area present on the site of inoculation of the KS cells was measured with a caliper and the extravasated dye was extracted from tissues with formamide and measured by spectrophotometry (Nakamura, Science 1992).

SMILES strings stand for the structures.

Experimental for MMP-2: HUVEC were cultivated for 24 hours in RPMI 1640 with the addition of 10% FBS. […] Aliquots of cell supernatants were then assayed for MMP-2 activity by gel zymography as described above. HT1080 is a tumour cell line secreting large amount of MMP-2 that was used as a control. […] The amount of supernatant analysed was normalised to the total cell number.

For the molecule `CC(C)(C)NC(=O)[C@@H]1CN(Cc2cccnc2)CCN1C[C@@H](O)C[C@@H](Cc1ccccc1)C(=O)N[C@H]1c2ccccc2C[C@H]1O` [Indinavir, indinavir], the “migration induced by bFGF” value in test [1] is recorded as “block”. Besides, in the test on MMP-2, the “total amount of MMP-2 released by cells in the presence of TPA” value is on record as “inhibited”. In [2], the “No. of mice developing lesions/No. of mice” value was 2/6 and the “mice developing lesions (%)” value came to 33%. Also, in the test with KS cells, the “migration of KS cells” value is given as “neither indinavir nor saquinavir had any effect”. Further, in [3], the “No. of mice with macroscopic lesions/No. of inoculated mice” value was 7/16 and the “mice with macroscopic lesions (%)” value was 43%. Besides, the “development of lesions (lesion size)” value in test [4] is “inhibit”. Also, the “development of tumour lesions (lesion size)” value in test [5] was “inhibit”.

As to `CC(C)(C)NC(=O)[C@@H]1C[C@@H]2CCCC[C@@H]2CN1C[C@@H](O)[C@H](Cc1ccccc1)NC(=O)[C@H](CC(N)=O)NC(=O)c1ccc2ccccc2n1` [Saquinavir, saquinavir], the “migration induced by bFGF” value in [1] is reported as “block”. For the same molecule, the “release of casein-degradation activity induced by bFGF or TPA” value in the test on casein-degrading MMPs was “inhibited”. Besides, in test [2], the “No. of mice developing lesions/No. of mice” value was 1/6 and the “mice developing lesions (%)” value amounted to 17%. Also, the “migration of KS cells” value with KS cells is on record as “neither indinavir nor saquinavir had any effect”. Besides, in [3], the “No. of mice with macroscopic lesions/No. of inoculated mice” value is reported as 4/16 and the “mice with macroscopic lesions (%)” value was found to be 25%. For the same molecule, in test [4], the “development of lesions (lesion size)” value was “inhibit”. Also, the “development of tumour lesions (lesion size)” value in test [5] is recorded as “inhibit”. Further, in test [6], the “reduction of the stained area (measurement with a gauge/caliper)” value is on record as 47.5%. The “reduction of the amount of extravasated dye (spectrophotometer)” value in [6] (formamide extraction) was 44.5%.
